Assays:
Uromyces viciae-fabae = Uromyces viciae-fabae / field bean / leaf disc preventative (faba-bean rust); assay type: in vivo; conditions: foliar, 288 h, 100 ppm in the applied formulation, field bean leaf discs, inoculated two hours after application, vs untreated, 12 days after application, read-out: disease control
Protocol: (§1) Leaf disks or leaf segments of various plant species are cut from plants grown in a greenhouse. The cut leaf disks or segments are placed in multiwell plates (24-well format) onto water agar. The leaf disks are sprayed with a test solution before (preventative) or after (curative) inoculation. Compounds to be tested are prepared as DMSO solutions (max. 10 mg/ml) which are diluted to the appropriate concentration with 0.025% Tween20 just before spraying. The inoculated leaf disks or segments are incubated under defined conditions (temperature, relative humidity, light, etc.) according to the respective test system. A single evaluation of disease level is carried out 3 to 14 days after inoculation, depending on the pathosystem. Percent disease control relative to the untreated check leaf disks or segments is then calculated.
Example 5: Fungicidal Activity Against Uromyces viciae-fabael Field Bean/Leaf Disc Preventative (Faba-Bean Rust)
Field bean leaf discs are placed on water agar in multiwell plates (96-well format) and 10 μl of the Formulated test compound diluted in acetone and a spreader pipetted onto the leaf disc. Two hours after application leaf discs are inoculated by spraying a spore suspension on the lower leaf surface. The leaf discs are incubated in a climate cabinet at 22° C. with 18 hour day and 70% relative humidity. The activity of a compound is assessed as percent disease control compared to untreated when an appropriate level of disease damage appears in untreated check leaf disks (12 days after application).
The following compounds at 100 ppm in the applied Formulation give at least 80% disease control in this test when compared to untreated control leaf discs under the same conditions, which show extensive disease development.

[1] = system: Glomerella lacenarium (Colletotrichum lacenarium); test: Glomerella lacenarium (Colletotrichum lacenarium) liquid culture / cucumber / preventative (anthracnose); assay type: cell-based; conditions: 20 ppm, liquid culture in PDB, 24° C., inhibition of growth measured photometrically 3 to 4 days after application, vs untreated, read-out: disease control
Method in brief: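 Cryopreserved conidia in potato dextrose broth were added to test compound in a 96-well microtiter plate and incubated at 24 °C. Growth inhibition read photometrically 3–4 days after application, as percent activity versus untreated check.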

[2] = system: Puccinia recondita f. Sp. Tritici; test: Puccinia recondita f. sp. tritici / wheat / leaf disc preventative (brown rust); assay type: in vivo; conditions: foliar, 200 ppm in the applied formulation, wheat leaf segments cv. Kanzler, inoculated 1 day after application, vs untreated, 7 to 9 days after application, read-out: disease control
Method in brief: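 Preventative leaf-segment test on wheat cv. Kanzler: formulated compound diluted in water was sprayed onto segments on agar, with spore inoculation 1 day later. Incubated at 19° C, 75% rh, 12 h light/12 h dark; percent disease control versus untreated scored 7 to 9 days after application.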

[3] = system: Puccinia recondita f. Sp. Tritici; test: Puccinia recondita f. sp. tritici / wheat / leaf disc curative (brown rust); assay type: in vivo; conditions: foliar, 200 ppm in the applied formulation, wheat leaf segments cv. Kanzler, compound applied 1 day after inoculation, vs untreated, 6 to 8 days after application, read-out: disease control
Protocol: as §1
Example 2: Fungicidal Activity Against Puccinia recondita f. sp. tritici/Wheat/Leaf Disc Curative (Brown Rust)
Wheat leaf segments cv. Kanzler are placed on agar in multiwell plates (24-well format). The leaf segments are then inoculated with a spore suspension of the fungus. Plates were stored in darkness at 19° C. and 75% relative humidity. The Formulated test compound diluted in water was applied 1 day after inoculation. The leaf segments were incubated at 19° C. and 75% relative humidity under a light regime of 12 hours light/12 hours darkness in a climate cabinet and the activity of a compound was assessed as percent disease control compared to untreated when an appropriate level of disease damage appears in untreated check leaf segments (6 to 8 days after application).
The following compounds at 200 ppm in the applied Formulation give at least 80% disease control in this test when compared to untreated control leaf disks under the same conditions, which show extensive disease development.

Phakopsora pachyrhizi = Phakopsora pachyrhizi / soybean / leaf disc preventative (Asian soybean rust); assay type: in vivo; conditions: foliar, 200 ppm in the applied formulation, soybean leaf disks, inoculated one day after application, vs untreated, 12 to 14 days after application, read-out: disease control
Method in brief: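 Soybean leaf discs on water agar sprayed with formulated compound diluted in water, then inoculated one day later with spore suspension on the lower surface. Held 24-36 h dark at 20 °C, 75% rh, then 12 h light/day; percent disease control versus untreated scored 12-14 days after application.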

SMILES	pest or weed control at 100 ppm (Uromyces viciae-fabae)	further results
O=C(Nc1ccc(-c2noc(C(F)(F)F)n2)cc1)c1ccccc1 [Compound 1.3, N-[4-[5-(trifluoromethyl)-1,2,4-oxadiazol-3-yl]phenyl]benzamide]	≥ 80%	–
O=C(Nc1ccc(-c2noc(C(F)(F)F)n2)cc1)c1cccn2ccnc12 [Compound 1.7, N-[4-[5-(trifluoromethyl)-1,2,4-oxadiazol-3-yl]phenyl]imidazo[1,2-a]pyridine-8-carboxamide]	≥ 80%	–
O=C(Nc1ccc(-c2noc(C(F)(F)F)n2)cc1)c1cn(C2CC2)c2cc(Cl)c(F)cc2c1=O [Compound 1.8, 7-chloro-1-cyclopropyl-6-fluoro-4-oxo-N-[4-[5-(trifluoromethyl)-1,2,4-oxadiazol-3-yl]phenyl]quinoline-3-carboxamide]	≥ 80%	–
O=C(Nc1ccc(-c2noc(C(F)(F)F)n2)cc1)c1cccc2c1OCCO2 [Compound 1.9, N-[4-[5-(trifluoromethyl)-1,2,4-oxadiazol-3-yl]phenyl]-2,3-dihydro-1,4-benzodioxine-5-carboxamide]	≥ 80%	–
CS(=O)(=O)CC(=O)Nc1ccc(-c2noc(C(F)(F)F)n2)cc1 [Compound 1.10, 2-methylsulfonyl-N-[4-[5-(trifluoromethyl)-1,2,4-oxadiazol-3-yl]phenyl]acetamide]	≥ 80%	inhibition of growth at 20 ppm [1]: ≥ 80%
O=C(NC(C(=O)Nc1ccc(-c2noc(C(F)(F)F)n2)cc1)c1ccccc1)OCc1ccccc1 (stereo not drawn) [Compound 1.14, benzyl N-[2-oxo-1-phenyl-2-[4-[5-(trifluoromethyl)-1,2,4-oxadiazol-3-yl]anilino]ethyl] carbamate]	≥ 80%	–
N#Cc1cc(F)c(C(=O)Nc2ccc(-c3noc(C(F)(F)F)n3)cc2)c(F)c1 [Compound 1.15, 4-cyano-2,6-difluoro-N-[4-[5-(trifluoromethyl)-1,2,4-oxadiazol-3-yl]phenyl]benzamide]	≥ 80%	inhibition of growth at 20 ppm [1]: ≥ 80%
O=C(C=Cc1cccc2ccccc12)Nc1ccc(-c2noc(C(F)(F)F)n2)cc1 [Compound 1.17, 3-(1-naphthyl)-N-[4-[5-(trifluoromethyl)-1,2,4-oxadiazol-3-yl]phenyl]prop-2-enamide]	≥ 80%	–
COc1cc(OC)nc(Oc2ncccc2C(=O)Nc2ccc(-c3noc(C(F)(F)F)n3)cc2)n1 [Compound 1.22, 2-(4,6-dimethoxypyrimidin-2-yl)oxy-N-[4-[5-(trifluoromethyl)-1,2,4-oxadiazol-3-yl]phenyl]pyridine-3-carboxamide]	≥ 80%	–
COc1ccc(Br)cc1C(C)C(=O)Nc1ccc(-c2noc(C(F)(F)F)n2)cc1 (stereo not drawn) [Compound 1.24, 2-(5-bromo-2-methoxy-phenyl)-N-[4-[5-(trifluoromethyl)-1,2,4-oxadiazol-3-yl]phenyl] propanamide]	≥ 80%	–
Cn1nc(C(=O)Nc2ccc(-c3noc(C(F)(F)F)n3)cc2)c(Cl)c1OC(F)F [Compound 1.25, 4-chloro-5-(difluoromethoxy)-1-methyl-N-[4-[5-(trifluoromethyl)-1,2,4-oxadiazol-3-yl]phenyl]pyrazole-3-carboxamide]	≥ 80%	–
O=C(Nc1ccc(-c2noc(C(F)(F)F)n2)cc1)c1nccc2nnsc12 [Compound 1.28, N-[4-[5-(trifluoromethyl)-1,2,4-oxadiazol-3-yl]phenyl]thiadiazolo [5,4-c]pyridine-4-carboxamide]	≥ 80%	–
CC(C)C(NC(=O)OC(C)(C)C)C1=NOC(C(=O)Nc2ccc(-c3noc(C(F)(F)F)n3)cc2)C1 (stereo not drawn) [Compound 1.30, tert-butyl N-[2-methyl-1-[5-[[4-[5-(trifluoromethyl)-1,2,4-oxadiazol-3-yl]phenyl]carbamoyl]-4,5-dihydroisoxazol-3-yl]propyl]carbamate]	≥ 80%	–
Cn1nc(C(C)(C)C)cc1C(=O)Nc1cccc(C(=O)Nc2ccc(-c3noc(C(F)(F)F)n3)cc2)c1 [Compound 1.33, 5-tert-butyl-2-methyl-N-[3-[[4-[5-(trifluoromethyl)-1,2,4-oxadiazol-3-yl]phenyl]carbamoyl]phenyl]pyrazole-3-carboxamide]	≥ 80%	–
O=C(Nc1ccc(-c2noc(C(F)(F)F)n2)cc1)c1cc(F)cc2nnsc12 [Compound 1.34, 5-fluoro-N-[4-[5-(trifluoromethyl)-1,2,4-oxadiazol-3-yl]phenyl]-1,2,3-benzothiadiazole-7-carboxamide]	≥ 80%	–
O=C(COc1ccc(Oc2cccc(F)c2)cc1)Nc1ccc(-c2noc(C(F)(F)F)n2)cc1 [Compound 1.35, 2-[4-(3-fluorophenoxy)phenoxy]-N-[4-[5-(trifluoromethyl)-1,2,4-oxadiazol-3-yl]phenyl]acetamide]	≥ 80%	–
Cc1sc(Nc2ccccc2)nc1C(=O)Nc1ccc(-c2noc(C(F)(F)F)n2)cc1 [Compound 1.37, 2-anilino-5-methyl-N-[4-[5-(trifluoromethyl)-1,2,4-oxadiazol-3-yl]phenyl]thiazole-4-carboxamide]	≥ 80%	–
O=C(Nc1ccc(-c2noc(C(F)(F)F)n2)cc1)c1cccc(OCc2ccccc2)c1 [Compound 1.38, 3-benzyloxy-N-[4-[5-(trifluoromethyl)-1,2,4-oxadiazol-3-yl]phenyl]benzamide]	≥ 80%	–
O=C(Nc1ccc(-c2noc(C(F)(F)F)n2)cc1)C(F)(F)c1ccc(Br)cc1 [Compound 1.40, 2-(4-bromophenyl)-2,2-difluoro-N-[4-[5-(trifluoromethyl)-1,2,4-oxadiazol-3-yl]phenyl]acetamide]	≥ 80%	–
O=C(Nc1ccc(-c2noc(C(F)(F)F)n2)cc1)c1ccc(-n2ccnc2)cc1 [Compound 1.42, 4-imidazol-1-yl-N-[4-[5-(trifluoromethyl)-1,2,4-oxadiazol-3-yl]phenyl]benzamide]	≥ 80%	–
O=C(Nc1ccc(-c2noc(C(F)(F)F)n2)cc1)c1cc(Br)nn1-c1ncccc1Cl [Compound 1.43, 5-bromo-2-(3-chloro-2-pyridyl)-N-[4-[5-(trifluoromethyl)-1,2,4-oxadiazol-3-yl]phenyl]pyrazole-3-carboxamide]	≥ 80%	–
CC(=O)N(c1ccc(-c2noc(C(F)(F)F)n2)cc1)C(C)C(=O)NC(C)(C)C (stereo not drawn) [Compound 1.59, 2-[N-acetyl-4-[5-(trifiuoromethyl)-1,2,4-oxadiazol-3-yl]anilino]-N-tert-butyl-propanamide]	≥ 80%	–
CC(=O)N(c1ccc(-c2noc(C(F)(F)F)n2)cc1)C(C)(C)C(=O)NC(C)(C)C [Compound 1.61, 2-[N-acetyl-4-[5-(trifluoromethyl)-1,2,4-oxadiazol-3-yl]anilino]-N-tert-butyl-2-methyl-propanamide]	≥ 80%	–
CN(C(=O)c1ccccc1)c1ccc(-c2noc(C(F)(F)F)n2)cc1 [Compound 2.20, N-methyl-N-[4-[5-(trifluoromethyl)-1,2,4-oxadiazol-3-yl]phenyl]benzamide]	–	pest or weed control at 200 ppm [2]: ≥ 80%; pest or weed control at 200 ppm [3]: ≥ 80%; inhibition of growth at 20 ppm [1]: ≥ 80%; pest or weed control at 200 ppm (Phakopsora pachyrhizi): ≥ 80%
CC(=O)Nc1ccc(-c2noc(C(F)(F)F)n2)cn1 [Compound 2.29, N-[5-[5-(trifluoromethyl)-1,2,4-oxadiazol-3-yl]-2-pyridyl]acetamide]	–	pest or weed control at 200 ppm [2]: ≥ 80%; pest or weed control at 200 ppm [3]: ≥ 80%; inhibition of growth at 20 ppm [1]: ≥ 80%; pest or weed control at 200 ppm (Phakopsora pachyrhizi): ≥ 80%

From patent publication US20200022370A1, “MICROBIOCIDAL OXADIAZOLE DERIVATIVES” (SYNGENTA PARTICIPATIONS AG, priority 2016, published 2020)
